Results taken from PMC5651819, “AtSPX1 affects the AtPHR1–DNA-binding equilibrium by binding monomeric AtPHR1 in solution” (Biochemical Journal, 2017).

Biological target: T1, GST–AtSPX1 (Arabidopsis thaliana, UniProt Q8LBH4)
T1 construct: gene SPX1; contains degradation products and free GST
T1 sequence (Q8LBH4 1-256): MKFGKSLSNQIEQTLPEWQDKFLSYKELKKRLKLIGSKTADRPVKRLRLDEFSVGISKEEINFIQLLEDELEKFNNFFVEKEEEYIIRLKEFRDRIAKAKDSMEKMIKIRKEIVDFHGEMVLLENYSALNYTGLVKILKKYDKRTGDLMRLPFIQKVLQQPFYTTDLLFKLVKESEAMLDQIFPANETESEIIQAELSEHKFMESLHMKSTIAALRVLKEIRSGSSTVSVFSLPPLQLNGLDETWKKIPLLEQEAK
Test: microscale thermophoresis
Details: unreliable; data not shown; some Pi binding to free GST, precise affinity could not be determined

## O=P(O)(O)O [Pi]
  Kd: 5 to 10 mM
